Data taken from US8927559B2, “Quinazolinone-type compounds as CRTH2 antagonists” (Merck Sharp & Dohme Corp., priority 2010, dated 2015).
Values joined by “and” are separate entries in the source; they are usually repeats but may differ in a detail not shown here. Equal entries are not always repeated.

Biological target: T1, CRTH2 receptor (hCRTH2) (Homo sapiens, UniProt Q9Y5Y4)
T1 construct: expressed in transfected cells; host or cells: HEK cells (HEK-hCRTH2 cell line), membranes
T1 sequence (Q9Y5Y4 1-395): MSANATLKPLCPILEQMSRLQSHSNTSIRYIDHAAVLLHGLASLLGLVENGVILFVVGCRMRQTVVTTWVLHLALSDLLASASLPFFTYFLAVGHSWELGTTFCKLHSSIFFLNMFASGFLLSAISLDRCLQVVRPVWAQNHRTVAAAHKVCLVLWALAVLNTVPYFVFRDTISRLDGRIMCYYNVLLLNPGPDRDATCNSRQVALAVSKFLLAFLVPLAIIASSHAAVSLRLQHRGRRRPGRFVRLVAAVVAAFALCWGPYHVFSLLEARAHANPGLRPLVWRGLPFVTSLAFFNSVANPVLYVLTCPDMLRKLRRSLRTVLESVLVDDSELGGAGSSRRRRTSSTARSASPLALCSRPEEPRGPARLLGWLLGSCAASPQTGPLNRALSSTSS
Assay: Radioligand binding assay ([3H]PGD2 competition, membranes of HEK-hCRTH2 cell line)
Conditions: 3.0 nM [3H]PGD2, HEK-hCRTH2 membranes, 60 min, room temperature; read-out: Ki
Procedure, shortened: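 Membranes (8-20 μg protein) from HEK cells expressing human CRTH2 were incubated with [3H]PGD2 and competitor in 1% DMSO for 60 min at room temperature. Non-specific binding was defined with excess PGD2. Bound radioactivity was separated by filtration and counted by melt-on scintillation.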

Ki	SMILES
≤ 0.01 µM	CC1(c2ccc(F)c(F)c2)CC(c2ccc3c(=O)n(-c4ccc(F)cc4)c(CCCCC(=O)O)nc3c2)=NO1 (centres unmarked) [Example 124]
0.01 to 0.05 µM	O=C(O)CCCCc1nc2cc(C3=NOC(c4ccccc4)(C(F)(F)F)C3)ccc2c(=O)n1-c1ccc(F)cc1 (centres unmarked) [Example 127]
≤ 0.01 µM	C=C(c1ccccc1)c1cc(-c2ccc3c(=O)n(-c4ccc(F)cc4)c(CCCCC(=O)O)nc3c2)no1 [Example 128]
≤ 0.01 µM	CC(O)(c1cc(-c2ccc3c(=O)n(-c4ccc(F)cc4)c(CCCCC(=O)O)nc3c2)no1)c1ccccc1F (centres unmarked) [Example 129]
≤ 0.01 µM	CC(O)(c1cccc(F)c1)c1cc(-c2ccc3c(=O)n(-c4ccc(F)cc4)c(CCCCC(=O)O)nc3c2)no1 (centres unmarked) [Example 130]
0.01 to 0.05 µM	O=C(O)CCCCc1nc2cc(-c3cc(C(O)(c4ccccc4)C(F)(F)F)on3)ccc2c(=O)n1-c1ccc(F)cc1 (centres unmarked) [Example 131]
0.01 to 0.05 µM	CC1(C(O)c2ccc(C#N)cc2)CC(c2ccc3c(=O)n(-c4ccc(F)cc4)c(CCCCC(=O)O)nc3c2)=NO1 (centres unmarked) [Example 132]
≤ 0.01 µM	CC(c1ccccc1)c1cc(-c2ccc3c(=O)n(-c4ccc(F)cc4)c(CCCCC(=O)O)nc3c2)no1 (centres unmarked) [Example 133]
≤ 0.01 µM	C[C@@]1([C@H](O)c2cccc(C#N)c2)CC(c2ccc3c(=O)n(-c4ccc(F)cc4)c(CCCCC(=O)O)nc3c2)=NO1 [Example 136]
≤ 0.01 µM	C[C@@]1([C@@H](O)c2cccc(C#N)c2)CC(c2ccc3c(=O)n(-c4ccc(F)cc4)c(CCCCC(=O)O)nc3c2)=NO1 [Example 137]
0.01 to 0.05 µM	C[C@]1([C@H](O)c2cccc(C#N)c2)CC(c2ccc3c(=O)n(-c4ccc(F)cc4)c(CCCCC(=O)O)nc3c2)=NO1 [Example 138]
0.01 to 0.05 µM	O=C(O)CCCCc1nc2cc(C3=NOC4(CCc5ccccc54)C3)ccc2c(=O)n1-c1ccc(F)cc1 (centres unmarked) [Example 143]
0.01 to 0.05 µM	O=C(O)CCCCc1nc2cc(C3=NOC4(CCc5c(F)cccc54)C3)ccc2c(=O)n1-c1ccc(F)cc1 (centres unmarked) [Example 144]
≤ 0.01 µM	O=C(O)CCCCc1nc2cc(C3=NOC4(C3)Cc3ccccc3C4)ccc2c(=O)n1-c1ccc(F)cc1 [Example 145]
0.01 to 0.05 µM	CO[C@@H](c1ccccc1)c1cc(-c2ccc3c(=O)n(-c4ccc(F)cc4)c(C(C)CCCC(=O)O)nc3c2)no1 (some centres unmarked) [Example 146]
≤ 0.01 µM	CO[C@@H](c1ccccc1)c1cc(-c2ccc3c(=O)n(-c4ccc(F)cc4)c(CCCCC(=O)O)nc3c2)no1 [Example 147]
≤ 0.01 µM	CO[C@H](c1ccccc1)c1cc(-c2ccc3c(=O)n(-c4ccc(F)cc4)c(C(C)CCCC(=O)O)nc3c2)no1 (some centres unmarked) [Example 148]
≤ 0.01 µM	CO[C@H](c1ccccc1)c1cc(-c2ccc3c(=O)n(-c4ccc(F)cc4)c(CCCCC(=O)O)nc3c2)no1 [Example 149]
≤ 0.01 µM	O=C(O)CCCCc1nc2cc(C3=NOC(c4nc5ccc(Cl)cc5o4)C3)ccc2c(=O)n1-c1ccc(F)cc1 (centres unmarked) [Example 150]
≤ 0.01 µM	O=C(O)CCCCc1nc2cc(C3=NOC(c4nc5ccc(Cl)cc5s4)C3)ccc2c(=O)n1-c1ccc(F)cc1 (centres unmarked) [Example 151]
0.01 to 0.05 µM	O=C(O)CCCCc1nc2cc(C3=NO[C@H](c4nc5ccc(Cl)cc5o4)C3)ccc2c(=O)n1-c1ccc(F)cc1 [Example 152]
≤ 0.01 µM	O=C(O)CCCCc1nc2cc(C3=NO[C@@H](c4nc5ccc(Cl)cc5o4)C3)ccc2c(=O)n1-c1ccc(F)cc1 [Example 153]
≤ 0.01 µM	O=C(O)CCCCc1nc2cc(C3=NO[C@H](c4nc5ccc(Cl)cc5s4)C3)ccc2c(=O)n1-c1ccc(F)cc1 [Example 154]
≤ 0.01 µM	O=C(O)CCCCc1nc2cc(C3=NO[C@@H](c4nc5ccc(Cl)cc5s4)C3)ccc2c(=O)n1-c1ccc(F)cc1 [Example 155]
0.01 to 0.05 µM	O=C(O)C1CC(Cc2nc3cc(-c4cc(Cc5ccc(F)cc5)on4)ccc3c(=O)n2-c2ccc(F)cc2)C1 (centres unmarked) [Example 156]

Ki	SMILES
0.01 to 0.05 µM	O=C(O)CCCCc1nc2cc(-c3cc(-c4ccc(Br)cc4)on3)ccc2c(=O)n1-c1ccc(F)cc1 [Example 157]
≤ 0.01 µM	CC1(c2nc3ccc(Cl)cc3o2)CC(c2ccc3c(=O)n(-c4ccc(F)cc4)c(CCCCC(=O)O)nc3c2)=NO1 (centres unmarked) [Example 158]
≤ 0.01 µM	CC1(c2nc3cc(Cl)ccc3o2)CC(c2ccc3c(=O)n(-c4ccc(F)cc4)c(CCCCC(=O)O)nc3c2)=NO1 (centres unmarked) [Example 159]
≤ 0.01 µM	CC1(c2nc3ccccc3[nH]2)CC(c2ccc3c(=O)n(-c4ccc(F)cc4)c(CCCCC(=O)O)nc3c2)=NO1 (centres unmarked) [Example 160]
≤ 0.01 µM	CC1(c2nc3cc(F)ccc3o2)CC(c2ccc3c(=O)n(-c4ccc(F)cc4)c(CCCCC(=O)O)nc3c2)=NO1 (centres unmarked) [Example 161]
≤ 0.01 µM	CC1(c2nc3ccccn3c2Cl)CC(c2ccc3c(=O)n(-c4ccc(F)cc4)c(CCCCC(=O)O)nc3c2)=NO1 (centres unmarked) [Example 162]
≤ 0.01 µM	C[C@@]1(c2nc3cc(F)ccc3o2)CC(c2ccc3c(=O)n(-c4ccc(F)cc4)c(CCCCC(=O)O)nc3c2)=NO1 [Example 163]
0.01 to 0.05 µM	C[C@]1(c2nc3cc(F)ccc3o2)CC(c2ccc3c(=O)n(-c4ccc(F)cc4)c(CCCCC(=O)O)nc3c2)=NO1 [Example 164]
0.01 to 0.05 µM	CC1(C(=O)Nc2cc(Cl)c(Cl)cc2O)CC(c2ccc3c(=O)n(-c4ccc(F)cc4)c(CCCCC(=O)O)nc3c2)=NO1 (centres unmarked) [Example 165]
≤ 0.01 µM	CC1(C(=O)Nc2cc(F)ccc2O)CC(c2ccc3c(=O)n(-c4ccc(F)cc4)c(CCCCC(=O)O)nc3c2)=NO1 (centres unmarked) [Example 166]
≤ 0.01 µM	C[C@@]1(c2nc3ccccn3c2Cl)CC(c2ccc3c(=O)n(-c4ccc(F)cc4)c(CCCCC(=O)O)nc3c2)=NO1 [Example 167]
≤ 0.01 µM	CC1(c2nc3ccc(F)cc3o2)CC(c2ccc3c(=O)n(-c4ccc(F)cc4)c(CCCCC(=O)O)nc3c2)=NO1 (centres unmarked) [Example 169]
≤ 0.01 µM	CC1(c2cn3ccccc3n2)CC(c2ccc3c(=O)n(-c4ccc(F)cc4)c(CCCCC(=O)O)nc3c2)=NO1 (centres unmarked) [Example 171]
≤ 0.01 µM	C[C@]1(c2nc3ccc(Cl)cc3o2)CC(c2ccc3c(=O)n(-c4ccc(F)cc4)c(CCCCC(=O)O)nc3c2)=NO1 [Example 172]
≤ 0.01 µM	CC1(c2nc3ccc(F)cc3[nH]2)CC(c2ccc3c(=O)n(-c4ccc(F)cc4)c(CCCCC(=O)O)nc3c2)=NO1 (centres unmarked) [Example 174]
≤ 0.01 µM	CC1(c2nc3ccc(Cl)cc3[nH]2)CC(c2ccc3c(=O)n(-c4ccc(F)cc4)c(CCCCC(=O)O)nc3c2)=NO1 (centres unmarked) [Example 175]
≤ 0.01 µM	C[C@]1(c2nc3ccccc3[nH]2)CC(c2ccc3c(=O)n(-c4ccc(F)cc4)c(CCCCC(=O)O)nc3c2)=NO1 [Example 176]
≤ 0.01 µM	C[C@@]1(c2cn3ccccc3n2)CC(c2ccc3c(=O)n(-c4ccc(F)cc4)c(CCCCC(=O)O)nc3c2)=NO1 [Example 178]
≤ 0.01 µM	C[C@@]1(c2nc3ccc(F)cc3[nH]2)CC(c2ccc3c(=O)n(-c4ccc(F)cc4)c(CCCCC(=O)O)nc3c2)=NO1 [Example 182]
0.01 to 0.05 µM	C[C@]1(c2nc3ccc(F)cc3[nH]2)CC(c2ccc3c(=O)n(-c4ccc(F)cc4)c(CCCCC(=O)O)nc3c2)=NO1 [Example 183]
≤ 0.01 µM and 0.0057 µM	C[C@@]1(c2nc3ccc(F)cc3o2)CC(c2ccc3c(=O)n(-c4ccc(F)cc4)c(CCCCC(=O)O)nc3c2)=NO1 [Example 184]
0.01 to 0.05 µM	C[C@]1(c2nc3ccc(F)cc3o2)CC(c2ccc3c(=O)n(-c4ccc(F)cc4)c(CCCCC(=O)O)nc3c2)=NO1 [Example 185]
≤ 0.01 µM	C[C@@]1(c2nc3ccc(Cl)cc3[nH]2)CC(c2ccc3c(=O)n(-c4ccc(F)cc4)c(CCCCC(=O)O)nc3c2)=NO1 [Example 186]
≤ 0.01 µM	C[C@]1(C(=O)Nc2cc(F)ccc2O)CC(c2ccc3c(=O)n(-c4ccc(F)cc4)c(CCCCC(=O)O)nc3c2)=NO1 [Example 189]

Same assay, conditions: Ki, 3.0 nM [3H]PGD2, HEK-hCRTH2 membranes, 60 min, room temperature

SMILES	Ki
O=C(O)CCCCc1nc2cc(C3=NOC(c4ccccc4)(c4ccccc4)C3)ccc2c(=O)n1-c1ccc(F)cc1 [Example 117]	0.01 to 0.05 µM
CC1(c2cccc(C#N)c2)CC(c2ccc3c(=O)n(-c4ccc(F)cc4)c(CCCCC(=O)O)nc3c2)=NO1 (centres unmarked) [Example 118]	0.01 to 0.05 µM
CC1(c2cccc(C#N)c2)CC(c2ccc3c(=O)n(-c4ccc(F)cc4)c(CCCCC(=O)O)nc3c2)=NO1 (centres unmarked) [Example 119]	≤ 0.01 µM
CC1(c2ccc(Cl)cc2)CC(c2ccc3c(=O)n(-c4ccc(F)cc4)c(CCCCC(=O)O)nc3c2)=NO1 (centres unmarked) [Example 120]	≤ 0.01 µM
CC1(c2ccc(F)cc2)CC(c2ccc3c(=O)n(-c4ccc(F)cc4)c(CCCCC(=O)O)nc3c2)=NO1 (centres unmarked) [Example 122]	≤ 0.01 µM
CC1(c2cc(F)cc(F)c2)CC(c2ccc3c(=O)n(-c4ccc(F)cc4)c(CCCCC(=O)O)nc3c2)=NO1 (centres unmarked) [Example 125]	≤ 0.01 µM
CC1(c2cc(F)cc(F)c2)CC(c2ccc3c(=O)n(-c4ccc(F)cc4)c(CCCCC(=O)O)nc3c2)=NO1 (centres unmarked) [Example 126]	0.01 to 0.05 µM
CC1(c2nc3ccccc3s2)CC(c2ccc3c(=O)n(-c4ccc(F)cc4)c(CCCCC(=O)O)nc3c2)=NO1 (centres unmarked) [Example 170]	≤ 0.01 µM
C[C@@]1(c2nc3ccccc3s2)CC(c2ccc3c(=O)n(-c4ccc(F)cc4)c(CCCCC(=O)O)nc3c2)=NO1 [Example 180]	≤ 0.01 µM
C[C@]1(c2nc3ccccc3s2)CC(c2ccc3c(=O)n(-c4ccc(F)cc4)c(CCCCC(=O)O)nc3c2)=NO1 [Example 181]	≤ 0.01 µM
